Experimental data: paper PMC5537346, “Characterisation and pharmacological analysis of a crustacean G protein-coupled receptor: the red pigment-concentrating hormone receptor of Daphnia pulex” (Scientific Reports, 2017)
Entries after “also recorded” stand apart in the source; their conditions may differ. Read-outs that look alike come from different tables or passages of the source. Where a SMILES comes first, the peptide text is derived from it. [ ]: non-standard residue; d: D form. pGlu = O=C1CC[C@@H](C(=O)O)N1

Experiments:
Nezara viridula = test system: Nezara viridula; set-up: method as in PMID 19686751; conditions: in vivo; cited from earlier work
Palaemon pacificus = test system: Palaemon pacificus; set-up: method as in PMID 19686751; conditions: in vivo, shrimp Palaemon pacificus; cited from earlier work
[1] = target: T1, Dappu-RPCHR (Daphnia pulex RPCH receptor) (Daphnia pulex, UniProt A0A240FBD5); assay: in vitro cell-based bioluminescence (aequorin Ca2+) assay on Dappu-RPCHR expressing CHO-WTA11 cells; conditions: for activation of Dappu-RPCHR (in words): Locmi-ACP statement at 10 µM
T1 sequence (A0A240FBD5 1-451): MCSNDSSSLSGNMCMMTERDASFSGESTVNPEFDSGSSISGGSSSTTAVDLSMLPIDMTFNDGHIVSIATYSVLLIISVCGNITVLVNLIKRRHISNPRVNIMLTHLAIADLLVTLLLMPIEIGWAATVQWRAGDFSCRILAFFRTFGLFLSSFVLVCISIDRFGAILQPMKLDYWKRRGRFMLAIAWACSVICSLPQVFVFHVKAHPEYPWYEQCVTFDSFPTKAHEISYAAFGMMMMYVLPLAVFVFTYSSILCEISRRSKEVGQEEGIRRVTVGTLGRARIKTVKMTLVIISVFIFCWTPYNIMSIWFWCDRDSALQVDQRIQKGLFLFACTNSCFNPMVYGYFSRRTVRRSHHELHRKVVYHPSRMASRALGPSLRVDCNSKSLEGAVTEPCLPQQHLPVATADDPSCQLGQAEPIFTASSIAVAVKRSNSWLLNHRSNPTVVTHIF
Method: Pharmacological analyses were performed in Chinese hamster ovary (CHO) WTA11 cells stably co-expressing the bioluminescent protein apoaequorin and the promiscuous Gα16 subunit, which couples most agonist-induced GPCRs to the phospholipase C and Ca^2+ pathway, irrespective of their natural signalling cascade.
CHO-WTA11 cells were cultured in monolayers in Dulbecco’s Modified Eagles Medium nutrient mixture F12-Ham (DMEM/F12) with L-glutamine, 15 mM HEPES, sodium bicarbonate and phenol red (Sigma-Aldrich) supplemented with 100 IU/ml penicillin and 100 µg/ml streptomycin (Gibco), 10% heat-inactivated fetal bovine serum (Gibco) and […] zeocin (Gibco). All cells were maintained in an incubator at 37 °C with a constant supply of 5% CO2.
Transfections with pcDNA3.1-Dappu-RPCHR or empty pcDNA3.1 vector were carried out in T75 flasks at 60–80% confluency. Transfection medium was prepared using the Lipofectamine LTX Kit (Invitrogen) with 2.5 ml Opti-MEM® (Gibco), 12.5 µl PlusTM Reagent and 5 µg vector construct in 5 ml polystyrene round-bottom tubes. After a 5 min incubation period at room temperature, 30 µl LTX was added to the medium. After a further incubation period of 30 min at room temperature, the medium was removed and DNA/LTX mix was added dropwise to the cells followed by 3 ml of fresh complete medium.
Following transfection, cells were incubated overnight (37 °C, 5% CO2), then 10 ml of cell medium was added followed by a second overnight incubation (37 °C, 5% CO2). Ligand-induced changes in intracellular Ca^2+ were then monitored in the cells as described below.
CHO-WTA11 cells transfected with receptor construct (or empty vector) plasmid were detached with PBS, complemented with 0.2% EDTA (pH 8.0), and rinsed off the flask with DMEM/F12 with L-glutamine and 15 mM HEPES (Sigma-Aldrich). The number of viable and nonviable cells was determined using a TC20 automated Cell Counter (BIO-RAD). The cells were pelleted for 5 minutes at 800 rpm and resuspended to a density of 5.10^6 cells/ml in sterile filtered bovine serum albumin (BSA) medium (DMEM/F12 with L-glutamine and 15 mM Hepes, supplemented with 0.1% BSA) and loaded with 5 µM Coelenterazine_h (Invitrogen) for 4 h in the dark, at room temperature, while gently shaking to reconstitute the holo-enzyme aequorin. After a 10-fold dilution, cell solution (50 µl) was delivered to each well in a 96-well plate (~25000 cells/well) and cells were exposed to potential ligands reconstituted in BSA medium and distributed across the plate. In every row, BSA medium alone was placed in one well to serve as the negative control (blank). The Ca^2+ response was recorded for 30 s on a Mithras LB 940 (Berthold Technologies). After 30 s, 0.1% Triton X-100, a non-ionic surfactant, was added to the same well to measure the total cellular Ca^2+ response. The total response (ligand + Triton X-100), which is directly related to the number of cells present in the well, was used to normalise the response. The response of each negative control was subtracted from the luminescence obtained for wells within the same row. Calculations were made using the output file from the Microwin software (Berthold Technologies) in Excel (Microsoft). Further analysis was done in GraphPad Prism 5.

[2] = Table 2, analogues of Dappu-RPCH

## CC(C)[C@H](NC(=O)[C@@H]1CCC(=O)N1)C(=O)N[C@@H](CC(N)=O)C(=O)N[C@@H](Cc1ccccc1)C(=O)N[C@@H](CO)C(=O)N[C@H](C(=O)N[C@@H](CO)C(=O)N[C@@H](Cc1c[nH]c2ccccc12)C(N)=O)[C@@H](C)O [Dappu-RPCH, pQVNFSTSWamide] ([pGlu]VNFSTSW-NH2)
Nezara viridula
  biological activity in the green stink bug: caused measurable biological activity
Palaemon pacificus
  effect on pigment migration in a decapod crustacean: could not affect pigment migration
[1]
  EC50: 65 pM
  concentration at which full activity was achieved: 0.1 nM
[1]; Table 1, AKH/RPCH and related peptides, calculated from dose-response curves
  EC50: 64.5 pM
[1]; [2]
  EC50: 64.5 pM

## CC(C)[C@H](NC(=O)[C@@H]1CCC(=O)N1)C(=O)N[C@@H](CC(N)=O)C(=O)N[C@@H](Cc1ccccc1)C(=O)N[C@@H](CO)C(=O)N[C@H](C(=O)N[C@@H](CO)C(=O)N[C@@H](Cc1c[nH]c2ccccc12)C(=O)O)[C@@H](C)O [[Trp-OH]Dappu-RPCH, pQVNFSTSW-OH] ([pGlu]VNFSTSW-OH)
[1]; [2]
  EC50: 17400 pM
[1]; from EC50 values
  fold lower affinity / potency relative to Dappu-RPCH: 270 fold

## pQTFQYSRGWTNamide [Dappu-Crz]
[1]
  activation of Dappu-RPCHR (in words): did not activate the receptor; also recorded: could not activate the Dappu-RPCHR at all

## pQVTFSRDWSPamide [Locmi-ACP]
[1]
  activation of Dappu-RPCHR (in words): only slightly active
[1]; peptide concentration of 10 µM
  % of the maximum activation: 30%
